Data reported in ChEMBL document CHEMBL1201862, “PubChem BioAssay data set” (2004).
The source made the active and inactive calls.

Tests used:
[1] = molecular target: Peroxisome proliferator-activated receptor gamma/Nuclear receptor coactivator 1 (Homo sapiens, UniProt P37231); type: functional;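 also: agonist potency as compounds enhance coactivator SRC-1 recruitment to PPARgamma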
[2] = molecular target: Peroxisome proliferator-activated receptor gamma/Nuclear receptor coactivator 3 (Homo sapiens, UniProt P37231); type: functional;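 also: agonist potency for raising coactivator recruitment to the receptor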
[3] = molecular target: Peroxisome proliferator-activated receptor gamma/Nuclear receptor coactivator 2 (Homo sapiens, UniProt P37231); type: functional;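 also: agonist potency for raising coactivator recruitment to the receptor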
cells = type: functional
[4] = microbe, parasite or virus in culture; type: functional; settings: Mycobacterium tuberculosis
[5] = Vero E6 cell cytotoxicity, dose response, cytotoxicity control for non-replicating M. tuberculosis project, secondary assay (AID 492998); type: functional, VeroE6; settings: Vero C1008
[6] = THP-1 cell cytotoxicity, dose response, cytotoxicity control for non-replicating M. tuberculosis project (AID 489025); type: functional
[7] = viability of HCT116 lacking mutant beta-catenin – cell-based, human colon tumor, dose response (AID 1045); type: functional;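 also: HCT116 colon tumor cells with beta catenin knocked out; cells exposed to compound for 60 hours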
[8] = viability of PTEN-deleted HCT116 cells – cell-based, HCT116 PTEN knockout, dose response (AID 1047); type: functional;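 also: HCT116 colon tumor cells with PTEN knocked out; cells exposed to compound for 60 hours before readout; potency for loss of cell viability measured by luminescence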
[9] = molecular target: DNA dC->dU-editing enzyme APOBEC-3G (Homo sapiens, UniProt Q9HC16); test: Dose Response confirmation of small molecule APOBEC3G DNA Deaminase Inhibitors via a fluorescence-based single-stranded DNA deaminase assay. [Related pubchem assays (depositor defined):AID493012, AID493028]; type: functional
[10] = molecular target: DNA dC->dU-editing enzyme APOBEC-3A (Homo sapiens, UniProt P31941); test: A3A deaminase inhibition for selectivity – biochemical, dose response (AID 504722); type: functional
HEK293 [11] = test: cells; type: functional, cell-based; settings: Homo sapiens
HEK293 [12] = test: cells; type: functional, cell-based; settings: Homo sapiens; remark: listed apart in the source
HEK293 [13] = test: NOD2 signaling inhibitors in MDP-stimulated cells, cell-based, uHTS, luminescence (AID 2001); type: functional; settings: Homo sapiens
HEK293 [14] = test: inhibition of NOD1-driven NF-kB reporter – cell-based, luminescence, uHTS, primary screen (AID 1578); type: functional; settings: Homo sapiens
Cytochrome P450 2C19 = Cytochrome P450 2C19 (Homo sapiens, UniProt P33261); test: Cytochrome panel assay with activity outcomes. Panel member name: p450-cyp2c19 Compounds with AC50 equal or less than 10 uM are considered active; type: functional; settings: read-out: AC50
Cytochrome P450 3A4 = Cytochrome P450 3A4 (Homo sapiens, UniProt P08684);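 also: CYP3A4 tested as one member of a cytochrome P450 panel screen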
Cytochrome P450 2C9 = Cytochrome P450 2C9 (Homo sapiens, UniProt P11712)
[15] = molecular target: 5-hydroxytryptamine receptor 5A (Homo sapiens, UniProt P47898); test: Counterscreen for agonists of OPRM1-OPRD1 heterodimerization: luminescence-based cell-based high throughput dose response assay to identify agonists of 5-hydroxytryptamine (serotonin) 5A receptor (HTR5A). [Related pubchem assays (depositor defined):AID504326, AID504355, AID504692, AID504904, AID504905]; type: functional
[16] = molecular target: Delta-type opioid receptor (Homo sapiens, UniProt P41143); test: Counterscreen for agonists of heterodimerization of the mu 1 (OPRM1) and delta 1 (OPRD1) opioid receptors: Luminescence-based cell-based high throughput dose response assay to identify agonists of OPRD1 homodimerization. [Related pubchem assays (depositor defined):AID504326, AID504355, AID504692, AID504904, AID504905]; type: functional
Mu-type opioid receptor = Mu-type opioid receptor (Homo sapiens, UniProt P35372); test: Counterscreen for agonists of heterodimerization of the mu 1 (OPRM1) and delta 1 (OPRD1) opioid receptors: Luminescence-based cell-based high throughput dose response assay to identify agonists of OPRM1 homodimerization.; type: functional;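 also: U2OS cells expressing OPRM1 and beta-arrestin as split beta-galactosidase partners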
SUMO-activating enzyme = SUMO-activating enzyme (Homo sapiens, UniProt Q9UBT2); test: blockers of UBC9-mediated SUMO conjugation – biochemical, AlphaScreen, SUMOylation inhibitor project, confirmation (AID 2018); type: functional
[17] = molecular target: T1, Ubiquitin-conjugating enzyme E2 N (Homo sapiens, UniProt P61088); type: functional
T1 sequence (P61088 whole entry): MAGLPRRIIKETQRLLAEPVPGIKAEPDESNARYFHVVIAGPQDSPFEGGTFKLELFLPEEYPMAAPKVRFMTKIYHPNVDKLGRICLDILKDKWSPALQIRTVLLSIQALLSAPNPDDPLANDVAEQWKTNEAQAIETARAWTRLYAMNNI

[18] = molecular target: T1, Ubiquitin-conjugating enzyme E2 N; type: functional; remark: listed apart in the source
Bcl-2-related protein A1 = molecular target: T2, Bcl-2-related protein A1 (Mus musculus, UniProt Q07440); type: functional;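 also: confirmatory dose–response counterscreen on Bfl-1, used to check hits from a UBC13 polyubiquitin inhibitor campaign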
T2 sequence (Q07440 whole entry): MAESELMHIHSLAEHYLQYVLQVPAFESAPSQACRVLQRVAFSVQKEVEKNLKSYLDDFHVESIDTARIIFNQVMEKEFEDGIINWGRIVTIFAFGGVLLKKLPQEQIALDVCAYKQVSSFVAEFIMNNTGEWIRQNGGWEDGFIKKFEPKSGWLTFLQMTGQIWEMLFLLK

Sequence of DNA dC->dU-editing enzyme APOBEC-3G (Q9HC16 whole entry): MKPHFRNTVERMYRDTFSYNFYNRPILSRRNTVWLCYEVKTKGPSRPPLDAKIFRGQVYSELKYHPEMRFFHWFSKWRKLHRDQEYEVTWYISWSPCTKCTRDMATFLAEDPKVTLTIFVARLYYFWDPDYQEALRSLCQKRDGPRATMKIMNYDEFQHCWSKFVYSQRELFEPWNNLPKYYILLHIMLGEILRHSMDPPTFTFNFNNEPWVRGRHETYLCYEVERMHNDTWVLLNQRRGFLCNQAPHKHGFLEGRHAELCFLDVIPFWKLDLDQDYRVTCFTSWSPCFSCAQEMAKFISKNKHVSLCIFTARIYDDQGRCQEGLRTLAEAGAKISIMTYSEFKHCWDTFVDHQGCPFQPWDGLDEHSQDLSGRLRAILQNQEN
Sequence of Peroxisome proliferator-activated receptor gamma/Nuclear receptor coactivator 3 (P37231 whole entry): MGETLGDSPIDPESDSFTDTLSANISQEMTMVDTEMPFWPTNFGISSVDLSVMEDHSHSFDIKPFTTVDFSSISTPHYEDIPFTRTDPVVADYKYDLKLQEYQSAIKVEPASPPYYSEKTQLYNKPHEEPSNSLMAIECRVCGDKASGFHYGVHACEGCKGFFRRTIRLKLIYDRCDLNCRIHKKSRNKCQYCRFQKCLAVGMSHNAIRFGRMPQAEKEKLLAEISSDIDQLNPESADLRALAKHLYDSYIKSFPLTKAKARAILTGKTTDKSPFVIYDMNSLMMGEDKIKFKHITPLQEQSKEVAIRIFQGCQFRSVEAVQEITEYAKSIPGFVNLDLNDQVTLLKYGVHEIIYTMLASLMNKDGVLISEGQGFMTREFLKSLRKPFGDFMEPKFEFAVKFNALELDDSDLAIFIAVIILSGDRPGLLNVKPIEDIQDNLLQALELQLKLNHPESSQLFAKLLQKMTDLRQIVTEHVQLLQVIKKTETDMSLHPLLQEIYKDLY
Sequence of Peroxisome proliferator-activated receptor gamma/Nuclear receptor coactivator 3 (Q9Y6Q9 whole entry, further chain): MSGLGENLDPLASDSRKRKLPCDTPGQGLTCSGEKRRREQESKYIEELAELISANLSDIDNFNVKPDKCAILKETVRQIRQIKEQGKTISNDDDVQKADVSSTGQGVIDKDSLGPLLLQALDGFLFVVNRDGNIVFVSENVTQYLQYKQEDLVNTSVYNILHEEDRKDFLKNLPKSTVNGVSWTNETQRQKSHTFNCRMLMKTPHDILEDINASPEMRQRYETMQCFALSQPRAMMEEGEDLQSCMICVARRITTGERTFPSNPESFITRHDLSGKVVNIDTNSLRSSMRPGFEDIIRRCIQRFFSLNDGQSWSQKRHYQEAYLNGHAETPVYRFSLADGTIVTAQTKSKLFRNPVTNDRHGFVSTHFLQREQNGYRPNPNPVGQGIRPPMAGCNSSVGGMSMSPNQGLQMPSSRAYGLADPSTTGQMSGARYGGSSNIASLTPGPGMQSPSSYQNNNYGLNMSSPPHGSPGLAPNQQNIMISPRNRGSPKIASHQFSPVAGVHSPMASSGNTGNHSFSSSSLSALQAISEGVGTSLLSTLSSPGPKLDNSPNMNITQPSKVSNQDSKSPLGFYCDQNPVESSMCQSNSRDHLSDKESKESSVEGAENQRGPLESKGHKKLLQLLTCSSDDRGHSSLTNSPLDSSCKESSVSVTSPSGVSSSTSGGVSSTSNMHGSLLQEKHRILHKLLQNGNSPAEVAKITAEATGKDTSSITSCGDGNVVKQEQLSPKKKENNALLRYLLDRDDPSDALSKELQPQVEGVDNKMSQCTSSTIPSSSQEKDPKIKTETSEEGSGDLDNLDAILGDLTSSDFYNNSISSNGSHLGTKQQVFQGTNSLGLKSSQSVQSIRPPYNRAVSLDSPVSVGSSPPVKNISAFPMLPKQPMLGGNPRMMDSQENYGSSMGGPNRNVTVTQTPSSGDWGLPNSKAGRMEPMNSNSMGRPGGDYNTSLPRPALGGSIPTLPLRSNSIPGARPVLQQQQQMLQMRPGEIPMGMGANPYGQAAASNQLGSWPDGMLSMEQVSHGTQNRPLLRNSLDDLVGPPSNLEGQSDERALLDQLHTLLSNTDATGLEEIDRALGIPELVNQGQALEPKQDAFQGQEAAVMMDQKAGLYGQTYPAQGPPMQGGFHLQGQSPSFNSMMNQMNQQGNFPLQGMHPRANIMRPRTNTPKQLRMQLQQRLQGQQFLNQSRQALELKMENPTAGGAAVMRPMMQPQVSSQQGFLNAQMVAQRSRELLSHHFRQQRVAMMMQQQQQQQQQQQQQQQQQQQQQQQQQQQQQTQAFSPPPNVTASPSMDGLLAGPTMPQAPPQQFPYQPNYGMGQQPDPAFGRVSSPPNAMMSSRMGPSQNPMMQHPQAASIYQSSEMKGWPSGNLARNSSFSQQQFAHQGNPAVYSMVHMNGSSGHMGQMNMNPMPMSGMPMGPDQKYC
Sequence of Peroxisome proliferator-activated receptor gamma/Nuclear receptor coactivator 2 (P37231 whole entry): as the sequence (P37231 whole entry) above
Sequence of Peroxisome proliferator-activated receptor gamma/Nuclear receptor coactivator 2 (Q15596 whole entry, further chain): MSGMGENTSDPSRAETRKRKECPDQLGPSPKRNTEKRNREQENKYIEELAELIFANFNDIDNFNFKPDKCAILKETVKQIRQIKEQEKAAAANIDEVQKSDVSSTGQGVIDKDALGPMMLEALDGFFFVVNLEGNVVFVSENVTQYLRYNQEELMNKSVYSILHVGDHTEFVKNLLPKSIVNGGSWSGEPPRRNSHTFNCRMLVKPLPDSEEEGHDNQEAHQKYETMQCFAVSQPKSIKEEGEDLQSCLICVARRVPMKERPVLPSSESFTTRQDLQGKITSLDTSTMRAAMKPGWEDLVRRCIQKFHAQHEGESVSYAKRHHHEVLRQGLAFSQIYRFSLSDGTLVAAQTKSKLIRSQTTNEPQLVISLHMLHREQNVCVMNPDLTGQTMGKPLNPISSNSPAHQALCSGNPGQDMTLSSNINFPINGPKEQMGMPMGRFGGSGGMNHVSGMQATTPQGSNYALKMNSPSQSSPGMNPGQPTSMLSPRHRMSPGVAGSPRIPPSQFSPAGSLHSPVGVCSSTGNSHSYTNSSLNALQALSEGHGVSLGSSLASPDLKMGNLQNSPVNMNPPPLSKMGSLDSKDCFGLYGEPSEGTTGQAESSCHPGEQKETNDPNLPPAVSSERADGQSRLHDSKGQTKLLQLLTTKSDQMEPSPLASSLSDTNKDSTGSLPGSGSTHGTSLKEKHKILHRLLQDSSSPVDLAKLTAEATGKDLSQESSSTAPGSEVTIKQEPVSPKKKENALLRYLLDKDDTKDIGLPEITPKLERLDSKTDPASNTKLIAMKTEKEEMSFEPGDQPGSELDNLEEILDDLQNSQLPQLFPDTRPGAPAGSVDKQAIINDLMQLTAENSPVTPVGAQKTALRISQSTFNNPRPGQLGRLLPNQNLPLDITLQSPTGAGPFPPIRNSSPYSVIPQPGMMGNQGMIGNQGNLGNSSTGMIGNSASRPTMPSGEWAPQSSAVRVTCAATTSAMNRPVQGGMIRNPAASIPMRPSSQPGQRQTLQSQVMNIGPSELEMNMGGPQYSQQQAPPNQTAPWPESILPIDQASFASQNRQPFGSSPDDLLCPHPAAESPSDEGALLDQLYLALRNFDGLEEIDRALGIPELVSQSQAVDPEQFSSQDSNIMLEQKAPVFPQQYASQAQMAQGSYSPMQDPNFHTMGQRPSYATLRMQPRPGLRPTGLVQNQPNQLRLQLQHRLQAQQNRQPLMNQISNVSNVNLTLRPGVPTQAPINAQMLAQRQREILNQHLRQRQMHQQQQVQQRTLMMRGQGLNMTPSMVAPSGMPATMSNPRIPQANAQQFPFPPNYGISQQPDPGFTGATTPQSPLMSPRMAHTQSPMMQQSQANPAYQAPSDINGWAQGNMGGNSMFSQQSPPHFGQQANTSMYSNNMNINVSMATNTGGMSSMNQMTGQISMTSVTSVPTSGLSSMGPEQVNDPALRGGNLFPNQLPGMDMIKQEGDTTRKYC
Sequence of Cytochrome P450 3A4 (P08684 whole entry): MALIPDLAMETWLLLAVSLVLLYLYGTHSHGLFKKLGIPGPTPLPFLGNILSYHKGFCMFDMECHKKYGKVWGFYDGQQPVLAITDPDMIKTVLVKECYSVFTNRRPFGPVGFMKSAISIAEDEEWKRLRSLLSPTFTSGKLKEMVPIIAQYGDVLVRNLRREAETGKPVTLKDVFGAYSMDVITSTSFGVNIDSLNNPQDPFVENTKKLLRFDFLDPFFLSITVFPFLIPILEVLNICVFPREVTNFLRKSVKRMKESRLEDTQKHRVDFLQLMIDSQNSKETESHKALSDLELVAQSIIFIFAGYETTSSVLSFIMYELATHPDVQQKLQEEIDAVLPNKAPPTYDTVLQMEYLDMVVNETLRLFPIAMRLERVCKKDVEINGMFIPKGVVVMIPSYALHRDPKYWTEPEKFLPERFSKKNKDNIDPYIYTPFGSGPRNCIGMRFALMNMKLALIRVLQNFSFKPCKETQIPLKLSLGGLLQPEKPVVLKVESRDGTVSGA
Sequence of DNA dC->dU-editing enzyme APOBEC-3A (P31941 whole entry): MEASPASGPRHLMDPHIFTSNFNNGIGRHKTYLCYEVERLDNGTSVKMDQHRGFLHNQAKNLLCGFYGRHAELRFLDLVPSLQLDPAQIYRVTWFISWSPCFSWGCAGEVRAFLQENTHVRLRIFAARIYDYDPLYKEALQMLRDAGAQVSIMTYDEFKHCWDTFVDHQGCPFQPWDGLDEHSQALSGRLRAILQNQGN

Compound: CC(C)n1c(SCC(=O)NCc2ccco2)nc2c1c(=O)n(C)c(=O)n2C
- EC50 [1]: > 79.4 µM (not active)
- EC50 [2]: > 79.4 µM (not active)
- EC50 [3]: > 79.4 µM (not active)

Compound: Oc1nc2ccccc2c2oc(CCl)nc12
- IC50 (cells): 3.25 µM (active)
- CC50 [4]: 12.9 µM (active)
- CC50 [5]: 7.46 µM (active)
- CC50 [6]: 20.1 µM (active)

Compound: COC(=O)c1cn(NC(=O)c2cnccn2)c(=O)c2ccccc12
- IC50 (cells): 9.07 µM (active)
- EC50 [7]: 8.3 µM (active)
- CC50 [5]: 16.2 µM (active)
- CC50 [6]: 24.2 µM (active)
- EC50 [8]: 9.08 µM (active)

Compound: COc1cc(-c2n[nH]c(=S)n2-c2ccc(C)cc2)cc(OC)c1OC
- IC50 [9]: 3.38 µM (active)
- IC50 [10]: > 100 µM (inactive)

Compound: Cc1ccc(NC(=O)CC(=O)c2ccc([N+](=O)[O-])cc2)cc1S(=O)(=O)Nc1cccc(Cl)c1
- IC50 (HEK293 [11]): > 20 µM (inactive)
- IC50 (HEK293 [12]): 7.05 µM (active)
- IC50 (HEK293 [13]): 9.19 µM (active)
- EC50 (HEK293 [14]): 9.53 µM (active)

Compound: COc1ccc(-c2nnc(-c3ccc(OCC(C)C)cc3)o2)cc1
- AC50 (Cytochrome P450 2C19): 7.08 µM (inconclusive)
- AC50 (Cytochrome P450 3A4): inconclusive
- AC50 (Cytochrome P450 2C9): 20 µM (inconclusive)

Compound: Cc1ccc(OCC(=O)Nc2ccc(NC(=O)c3cccs3)cc2)c(C)c1
- EC50 [15]: > 92.5 µM (inactive)
- EC50 [16]: > 92.5 µM (inactive)
- EC50 (Mu-type opioid receptor): > 92.5 µM (inactive)

Compound: CCOC(=O)C1Cc2c([nH]c3ccccc23)CN1.Cl (centres undefined)
- AC50 (Cytochrome P450 3A4): inconclusive
- AC50 (Cytochrome P450 2C9): 17.8 µM (inconclusive)

Compound: Cc1ccc(-c2csc(NC(=O)c3cc([N+](=O)[O-])ccc3N3CCOCC3)n2)cc1
- EC50 [1]: > 79.4 µM (not active)
- EC50 [2]: > 79.4 µM (not active)
- EC50 [3]: > 79.4 µM (not active)

Compound: Cc1cc(/C=C2\C(=O)NN(c3ccccc3)C2=O)c(C)n1-c1ccccc1O
- IC50 (SUMO-activating enzyme): 40.7 µM (active)

Compound: O=C(NCCCN1CCCC1)c1ccc(Cn2c(=S)[nH]c3ccc(Br)cc3c2=O)cc1
- IC50 [17]: > 20 µM (inactive)
- IC50 [18]: 16.7 µM (active)
- IC50 (Bcl-2-related protein A1): > 20 µM (inactive)

Compound: Cc1ccc(Sc2ccc(/C=C3/C(=O)NN(c4ccccc4)C3=O)o2)cc1
- IC50 (HEK293 [11]): > 20 µM (inactive)
- IC50 (cells): 18.7 µM (active)
- CC50 [4]: > 40 µM (active)
- IC50 (HEK293 [12]): 7.56 µM (active)
- IC50 (HEK293 [13]): 18.2 µM (inactive)
- EC50 (HEK293 [14]): > 20 µM (inactive)

Compound: Cc1cc(C)c2[nH]c(O)c(N=NC(S)=NCC3CCCO3)c2c1 (centres undefined)
- IC50 [17]: 0.509 µM (active)
- IC50 [18]: 10.2 µM (active)
- IC50 (Bcl-2-related protein A1): > 20 µM (inactive)

Compound: Sc1nnc(-c2ccncc2)n1/N=C/c1ccccc1Cl
- IC50 [9]: 3.46 µM (active)
- IC50 [10]: > 100 µM (inactive)
